Test results reported in patent publication US20260345555A1, “Compositions and Methods for Protecting Salivary Glands from Off-Target Radiation Damage” (University of Rochester, priority 2022, published 2026).
Where a name gives a salt, the structure may show the parent alone.

tested on: Reduced glutathione in salivary gland cell clusters (SGm); test: Glutathione assay in salivary gland tissue chip, 4 days post-radiation (15 Gy); also first screen of Selleck library at 100 μM; format: cell-based, mouse; conditions: not given
From the text: A salivary gland tissue chip was leveraged for high-content drug screening to identify novel radioprotective compounds (Song Y et al., Commun Biol., 2021, 4). The chip platform consists of an array of near-spherical microbubble (MB) cavities formed in poly(dimethylsiloxane) (PDMS). Each chip, containing ~50 MBs, affixed within wells of a 96-well plate (FIG. 1C). Primary salivary gland cell clusters (FIG. 1A), suspended in a poly(ethylene glycol) (PEG) hydrogel precursor and MMP-degradable peptide crosslinker solution together with the photoinitiator LAP, were applied to the chip allowing the clusters to deposit into the MBs (FIG. 1D). In situ polymerization of the hydrogel was achieved using long-wave, low intensity UV light. Over time, the cell clusters aggregate and proliferate to form SGm (FIG. 1C).
The glutathione assay was used to measure glutathione levels at various time points post-radiation to determine the optimal time point for detecting differences between 0 Gy and 15 Gy. Based on the data, the greatest signal separation was measured at 4 days post-irradiation (FIG. 9). This timepoint is similar to previous reports on decreases in glutathione post-radiation and was used for all experiments moving forward (Meeks L et al., Physiological Genomics, 2021, 53: 85-98).
The dose response to WR-1065 was examined to determine effective concentrations of WR-1065 to prevent the reduction of glutathione levels post-radiation. A SGm tissue chip was cultured for 4 days to allow spheres to form. The chip was then treated with WR-1065 30 minutes before and during radiation, followed by drug wash out with media 30 minutes post-radiation (FIG. 2A). This dosing scheme is consistent with the use of Amifostine clinically and with previous work. The glutathione assay was performed at 4 days post-radiation (FIG. 2A). […] Moreover, it is clinically relevant as 15-30 minutes before radiation, patients are administered Amifostine intravenously at 200 mg/m (Escobar A et al., IntechOpen, 2019, pp. 15-37; Eisbruch A, J Clin Oncol, 2011, 29: 119-121; Bardet, E. et al. Semin Oncol, 2002, 29, 57-60). Assuming an average adult body surface area of 17,000 cm^2 and a blood volume of 1.35 gallons (5.1 liters), Amifostine is administered at 300 μM (Mosteller, R. D. N Engl J Med 317, 1098 (1987)).
The glutathione and senescence assays were used to screen a library of FDA-approved drugs (Selleck Chemicals) at 100 μM. Drugs were first screened using the glutathione assay according to the timeline depicted in FIG. 2A. Any compound resulting in statistically similar glutathione levels compared to 0 Gy control was considered a hit (FIG. 4, grey circles). Hits with the glutathione assay were then tested with the senescence assay and considered a “double hit” if senescence levels were statistically similar to levels at 0 Gy (FIG. 4, black circles). […] While this hit rate is higher than many other drug screening reports (0.1-0.3%), this may be due to the statistical rigor afforded by the tissue chip format (Blanchard, C et al., Antimicrob Agents Chemother 2016, 60, 862-872; Colquhoun, J. M et al., Antibiotics (Basel) 2019, 8, 48). Additionally, phenotypic screens generally have higher hit rates than target-based screens (>1%) (Moffat, J. G et al., Nature Reviews Drug Discovery 2017, 16, 531-543; Rottman, M et al., Science 2010, 329, 1175-1180).
Mice were euthanized and the submandibular glands (SMG) were removed and chopped with a razor blade for 5 min. The tissue was then incubated in Hank's buffered salt solution (HBSS) containing 15 mM HEPES, 50 U/mL collagenase type II (Thermo Fischer 17101015), and 100 U/mL hyaluronidase (Sigma Aldrich H3506) at 37 °C for 30 min. Cells were centrifuged, then resuspended in HBSS with 15 mM HEPES and passed through 100 μm and 20 μm mesh filters to isolate clusters between 20-100 μm. The digestion protocol produces cell cluster sizes evenly distributed between 20 to 100 μm (Song, Y et al., Advanced Healthcare Materials). […]

Compound | Glutathione: Normalized mean intensity
O=P1(NCCCl)OCCCN1CCCl (stereo not drawn) [Ifosfamide] | 0.7162
CC(=O)Oc1ccccc1C(=O)Nc1ncc([N+](=O)[O-])s1 [Nitazoxanide (Alinia, Annita)] | 0.5996
O=P1(N(CCCl)CCCl)NCCCO1 (stereo not drawn) [Clafen (Cyclophosphamide)] | 0.5778

same assay, conditions: first screen of Selleck library at 100 μM, 15 Gy, 4 days post-radiation

Compound | Glutathione normalized mean intensity
CNC(=C[N+](=O)[O-])NCCSCc1csc(CN(C)C)n1 [Nizatidine] | 0.5754
CCOC(=O)[C@H](CCc1ccccc1)N[C@@H](C)C(=O)N1[C@H](C(=O)O)C[C@@H]2CCC[C@@H]21 [Ramipril (Altace)] | 0.7145
NC(=O)c1cccnc1 [Nicotinamide (Niacinamide)] | 0.6872
CC(C)(S)[C@@H](N)C(=O)O [Penicillamine (Cuprimine)] | 0.7681
CC(=O)OCC(=O)NCCCOc1cccc(CN2CCCCC2)c1 [Roxatidine acetate HCl] | 0.4245
O=C(O)CSCC(=O)NC1CCSC1=O (stereo not drawn) [Erdosteine] | 0.5728
CN=C(NC#N)NCCSCc1nc[nH]c1C [Cimetidine (Tagamet)] | 0.9597
Cc1c(Cl)cccc1Nc1ccccc1C(=O)O [Tolfenamic acid] | 0.8008
O=C([O-])c1cc(=O)c2c(OCC(O)COc3cccc4oc(C(=O)[O-])cc(=O)c34)cccc2o1.[Na+].[Na+] [Disodium Cromoglycate] | 0.6798
COc1ccccc1OCC(O)CN1CCN(CC(=O)Nc2c(C)cccc2C)CC1 (stereo not drawn) [Ranolazine (Ranexa)] | 0.5015
c1ccc([C@H]2CN3CCSC3=N2)cc1 [Levamisole Hydrochloride (Ergamisol)] | 0.8181
O=c1[nH]c(=O)n([C@H]2C[C@H](O)[C@@H](CO)O2)cc1I [Idoxuridine] | 0.7701
NCC1CCC(C(=O)O)CC1 (stereo not drawn) [Tranexamic acid (Transamin)] | 0.7568
CCC1(c2ccccc2)C(=O)NCNC1=O [Primidone (Mysoline)] | 0.8725
CN(C)CCOC(c1ccccc1)c1ccccc1 [Diphenhydramine HCl (Benadryl)] | 0.6149
C=CCc1cc(OC)c(O)c(C(=O)NCCO)c1 [Alibendol] | 0.7165
Cc1nnc(NS(=O)(=O)c2ccc(N)cc2)s1 [Sulfamethizole (Proklar)] | 0.4719
c1ccc(-c2ccc(C(c3ccccc3)n3ccnc3)cc2)cc1 (stereo not drawn) [Bifonazole] | 0.6115
C[C@@H]1[C@H](O)[C@@H](C)/C=C/C=C/CC/C=C/C=C/C=C/C=C/C(O[C@H]2O[C@H](C)[C@@H](O)[C@H](N)[C@@H]2O)CC2O[C@](O)(CC(O)C(O)CCC(O)CC(O)CC(O)CC(=O)O[C@H]1C)CC(O)C2C(=O)O (stereo partly drawn) [Nystatin (Mycostatin)] | 0.3498
Cc1ncc([N+](=O)[O-])n1CCO [Metronidazole (Flagyl)] | 0.5627
COc1cc([C@@H]2c3cc4c(cc3[C@@H](O[C@@H]3O[C@@H]5CO[C@@H](c6cccs6)O[C@H]5[C@H](O)[C@H]3O)[C@H]3COC(=O)[C@H]23)OCO4)cc(OC)c1O [Teniposide (Vumon)] | 0.4095
Clc1ccc(CCC(Cn2ccnc2)Sc2c(Cl)cccc2Cl)cc1 (stereo not drawn) [Butoconazole nitrate] | 0.6197
CC(C(=O)O)c1ccc2c(c1)Cc1cccnc1O2 (stereo not drawn) [Pranoprofen] | 0.7582
Nc1nc(O)c2ncn(COC(CO)CO)c2n1 [Ganciclovir] | 0.5803

Compound | Glutathione normalized mean intensity
O=C(O)Cc1ccccc1Nc1c(Cl)cccc1Cl [Diclofenac] | 0.334
CNC(=C[N+](=O)[O-])NCCSCc1ccc(CN(C)C)o1 [Ranitidine (Zantac)] | 0.4295
CC(=O)OCC(=O)[C@@]12N=C(C)O[C@@H]1C[C@H]1[C@@H]3CCC4=CC(=O)C=C[C@]4(C)[C@H]3[C@@H](O)C[C@@]12C [Deflazacort (Calcort)] | 0.5114
CCC(C)(C)C(=O)O[C@H]1C[C@@H](C)C=C2C=C[C@H](C)[C@H](CC[C@@H]3C[C@@H](O)CC(=O)O3)[C@H]21 [Simvastatin (Zocor)] | 0.1568
CC[C@H]1OC(=O)[C@H](C)[C@@H](O[C@H]2C[C@@](C)(OC)[C@@H](O)[C@H](C)O2)[C@H](C)[C@@H](O[C@@H]2O[C@H](C)C[C@H](N(C)C)[C@H]2O)[C@](C)(O)C[C@@H](C)CN(C)[C@H](C)[C@@H](O)[C@]1(C)O [Azithromycin (Zithromax)] | 0.8765
CN(C)[C@@H](CCOc1cccc2ccccc12)c1ccccc1 [Dapoxetine hydrochloride (Priligy)] | 0.7539
COc1ccc(CC2c3cc(OC)c(OC)cc3CC[N+]2(C)CCC(=O)OCCCCCOC(=O)CC[N+]2(C)CCc3cc(OC)c(OC)cc3C2Cc2ccc(OC)c(OC)c2)cc1OC (stereo not drawn) [Atracurium besylate] | 0.6611
Clc1ccc(C(Cn2ccnc2)OCc2ccsc2Cl)c(Cl)c1 (stereo not drawn) [Tioconazole] | 0.6333
Nc1nc(N)nc(-c2cc(Cl)ccc2Cl)n1 [Irsogladine] | 0.613
CC(C)n1c(/C=C/[C@H](O)C[C@H](O)CC(=O)O)c(-c2ccc(F)cc2)c2ccccc21 (racemic) [Fluvastatin sodium (Lescol)] | 0.5791
O=C(CCCN1CCC(O)(c2ccc(Cl)cc2)CC1)c1ccc(F)cc1 [Haloperidol (Haldol)] | 0.6675
NC(=O)NO [Hydroxyurea (Cytodrox)] | 0.4236
CN(C)C(=N)N=C(N)N [Metformin hydrochloride (Glucophage)] | 0.6991
CCCOc1ccc2nc(NC(=O)OC)[nH]c2c1 [Oxibendazole] | 0.747
O=P(O)(O)C(O)(Cc1cccnc1)P(=O)(O)O [Risedronic acid (Actonel)] | 0.6565
NC(=O)c1ncn([C@@H]2O[C@H](CO)[C@@H](O)[C@H]2O)c1N [Acadesine] | 0.3637
COCCc1ccc(OCC(O)CNC(C)C)cc1 (stereo not drawn) [Metoprolol tartrate] | 0.829
CN(C)c1ccc(C(=C2C=CC(=[N+](C)C)C=C2)c2ccc(N(C)C)cc2)cc1 [Crystal violet] | 0.1262
C[C@H]1COc2c(N3CCN(C)CC3)c(F)cc3c(=O)c(C(=O)O)cn1c23 [Levofloxacin (Levaquin)] | 0.6541
CC(=O)[C@H]1CC[C@H]2[C@@H]3CC=C4C[C@@H](O)CC[C@]4(C)[C@H]3CC[C@]12C [Pregnenolone] | 0.6057
CC(N)C12CC3CC(CC(C3)C1)C2 (stereo not drawn) [Rimantadine (Flumadine)] | 0.3987
CC(C)OC(=O)C(C)(C)Oc1ccc(C(=O)c2ccc(Cl)cc2)cc1 [Fenofibrate (Tricor, Trilipix)] | 0.5348
Oc1c(Cl)cc(Cl)c2cccnc12 [Chloroxine] | 0.1604
[I-].[K+] [Potassium iodide] | 0.386
